Measurements reported in patent US10881702B2, “Celastrol and derivatives thereof for the treatment of tumours and precancerous diseases of the skin” (PIERRE FABRE MEDICAMENT, priority 2016, dated 2021).

Tests used:
[1] = Clinical monitoring: body weight of topically treated SKH-1 mice; assay type: in vivo, mice (SKH-1)
Text: (§1) Non-inbred hairless SKH-1 strain mice are most commonly used in preclinical dermatological research. These non-pigmented and immunocompetent mice allow easy manipulation of the skin, application of topical agents, exposure to UV radiation and easy visualisation of the cutaneous response. Wound healing, acute biological photo responses and skin carcinogenesis are well characterised in this mouse strain. In addition, the tumours induced in these mice resemble, at both the molecular and the morphological level, UV-induced malignant skin tumours in humans. In this study on healthy skin, 6- to 8-week-old SKH-1 females (18 to 20 grams; Charles River Laboratories) are treated topically with the various compounds.
Picato® (0.015% ingenol mebutate), used in humans to treat actinic keratosis lesions, was administered topically to the animals (2 to 3 animals per group) for 24 hours under a 19-mm-diameter, i.e., 2.83 cm^2, occlusive patch (Hill Top Research, USA). The patch is loaded with 200 μL of Picato® cream, i.e. 30 μg of active ingredient. The treated skin area is delimited by tattooing on each mouse and the patch is held on the mouse using Tegaderm™ film and Omnifix® and Elastoplast™ adhesive tape. The occlusive dressing is removed after 24 hours, and the animals are followed clinically for 3 to 4 weeks. […]

[2] = system: healthy skin (epidermal keratinocytes); assay type: in vivo, mice (SKH-1); conditions: occlusive patch 30 h
Text: Apoptosis is a fundamental event in cell development (proliferation). The visualisation of apoptosis and the subsequent healing phenomenon reflects the efficacy of medicaments in the treatment of precancerous and cancerous cells. Picato® (0.015% ingenol mebutate) is a product on the market which is indicated for the treatment of actinic keratosis. Picato® is known to induce cell death by a necrotic effect that rapidly eliminates dead cells, followed by a healing phase. To evaluate the “apoptotic” power of celastrol on skin cells (epidermal keratinocytes), we compared the apoptotic effect induced by the topical application of celastrol compared to that of a product already on the market.
as §1
Picato® (0.015% ingenol mebutate), used in humans to treat actinic keratosis lesions, was administered topically to the animals (2 to 3 animals per group) for 24 hours under a 19-mm-diameter, i.e., 2.83 cm^2, occlusive patch (Hill Top Research, USA). The patch is loaded with 200 μL of Picato® cream, i.e. 30 μg of active ingredient. The treated skin area is delimited by tattooing on each mouse and the patch is held on the mouse using Tegaderm™ film and Omnifix® and Elastoplast™ adhesive tape. The occlusive dressing is removed after 24 hours, and the animals are followed clinically for 3 to 4 weeks.
Celastrol (Euromedex) is formulated in a vehicle consisting of 5% DMSO-70% glycerol-25% water. The pH is adjusted by adding soda to around 8-8.5 in order to completely solubilise the powder. The initial concentration is 10 mg/mL then serial dilutions in the vehicle yield concentrations of 5 and 2.5 mg/mL. Celastrol is applied topically for 30 hours under a 19-mm-diameter occlusive patch. The patches are loaded with 200 μL of the various celastrol solutions, i.e. 2000 μg, 1000 μg or 500 μg of active ingredient.
The treated skin area is delimited by tattooing on each mouse and the patch is held on the mouse using Tegaderm™ film and Omnifix® and Elastoplast™ adhesive tape. The occlusive bandage is removed after 30 hours and the animals are followed clinically for 3 to 4 weeks.
The animals are weighed twice per week. The treated area of each animal is photographed two to three times per week in order to follow the progression of the cutaneous reaction and healing.

## CC1=C(O)C(=O)C=C2C1=CC=C1[C@@]2(C)CC[C@@]2(C)[C@@H]3C[C@](C)(C(=O)O)CC[C@]3(C)CC[C@]12C [celastrol]
[1]; topical route at the doses used, SKH-1 mice
  systemic toxicity / tolerance: no systemic toxicity
[1]; topical, occlusive patch, Picato 200 μL (30 μg) 24 h, celastrol 500-2000 μg 30 h, weighed twice per week
  effect on the weight of SKH-1 mice: no effect on the weight
[2]; celastrol 1000 μg and 2000 μg doses
  scar area on day 28: slight hypertrophy of the scar area
[2]; celastrol 500, 1000, 2000 μg, 24 hours after discontinuation
  cutaneous reaction first visible: 3 days
[2]; celastrol 500-2000 μg, dose-dependent
  healing process starts: 7 days
[2]; celastrol 500-2000 μg, localised in the epidermis
  depth of the pro-apoptotic action: superficial
[2]; celastrol topical, dose-dependent
  dose from which apoptosis of epidermal cells is induced in vivo: ≥ 500 μg/application
[2]; celastrol, even at the highest dose (2000 μg)
  haemorrhagic zones: no haemorrhagic zones are observed
